Assay results: patent US20210338782A1, “STORAGE STABLE SOMATOSTATIN-DOPAMINE CHIMERIC COMPOUNDS AND SALT FORMS THEREOF” (Cydan II, Inc., priority 2019, published 2021)
Counter-ions that a name gives are not always drawn.

What was measured:
FIG. 6B = experiment: FIG. 6B
Description: Table printed on a drawing sheet, FIG. 6B
Footnotes: *N=2 with Animal 2 excluded.
First reader's note: Each Cmax and AUC0-t cell holds the value together with its SD; the sheet prints no units for Cmax or AUC0-t.

[1] = Time and temperature stability of lyophilized TBR-760 salts in sealed glass vials (visual appearance, HPLC); assay type: physicochemical; settings: for salt form degraded: sealed glass vials, HPLC
Experimental: Lyophilized TBR-760 salts prepared as described above were assessed for stability by visual appearance and HPLC following initial production of the salt and following incubation of the salt at 20° C., 40° C., and 60° C. for 2, 4, and 8 weeks in sealed, glass vials. Changes in visual appearance of the salt were noted by evaluating the color of the substance following each incubation condition. Purity of the salt following each incubation condition was evaluated by HPLC. The number and quantity of degradation products were determined according to the number of absorbance peaks that resulted at different retention times and the size of the peaks.

[2] = Thermostability of alternative salt forms of lanreotide and TBR-760 (UPLC); assay type: physicochemical
Experimental: (§1) Each TBR-760 salt was further evaluated for thermolytic stability over time by setting up three different exposure conditions (25° C. at 60% relative humidity (RH); 40° C. at 75% RH; or 60° C. with open and closed container systems (open dish/closed dish). Approximately 50 mg of each salt form was weighed in a nitrogen-flushed glove box for use in the studies. All samples were stored at −20° C. in a good laboratory practice (GLP) freezer both before and after exposure to the indicated conditions.
(§2) The stability of each salt form was assessed by monitoring the post-exposure drug peak purity and by evaluating the post-exposure visual appearance of the salt. The samples were removed from the exposure conditions and allowed to equilibrate to ambient conditions for 15-20 mins. An appropriate amount of each sample was weighed for analysis and dissolved in diluent (deionized water containing 0.1% TFA) to obtain a stock concentration of 1 mg/mL. The stock solution was then diluted to 0.125 mg/mL in an HPLC vial using diluent and the samples were run on a Waters Acquity UPLC system using the parameters shown in Table 4.
We conducted thermostability studies of lanreotide acetate substantially as described in Example 6. These experiments confirmed that lanreotide acetate is […] when exposed to increasing temperature and humidity conditions over time (FIG. 45). […] (FIG. 45). This degree of thermal and humidity instability is disfavored for a pharmaceutical agent, particularly one intended for patient self-administration at home.
To determine whether a thermostable salt form of TBR-760 could be manufactured, a salt exchange was performed as described in Example 1 to generate bromide and chloride salts of TBR-760. Lanreotide bromide and lanreotide chloride salts were also generated and assessed for thermostability to evaluate the effect of the salt form on compound stability and to compare stability of lanreotide and TBR-760 of each salt.
UPLC assays performed as described in Example 6 were further used to determine the number of degradants—and thus the number of impurities—in each sample. Results showing the purity assessment of each sample following thermostability studies are shown in FIGS. 48A-48B (lanreotide and TBR-760 acetate salts), 49A-49B (lanreotide and TBR-760 bromide salts), and 50A-50B (lanreotide and TBR-760 chloride salts).

[3] = Solid state (thermolytic) stability of TBR-760 salt forms, open container, UPLC peak purity and appearance; assay type: physicochemical
Experimental: as §1, §2

[4] = Photostability of alternative salt forms of lanreotide and TBR-760; assay type: physicochemical; settings: 1.2 million lux hours visible light or 200 watt hours/square meter UV light, versus control
Description: (§3) In order to evaluate the light sensitivity and stability of TBR-760 chimeric peptide salts, all five salt forms were exposed to ultraviolet (UV) and visible light according to International Council for Harmonisation of Technical Requirements for Pharmaceuticals for Human Use (ICH) guideline Q1B for photostability testing. In brief, a Caron 6540-1 photostability chamber unit with separate UV and light chambers was used for the studies. Visible light exposure was 1.2 million lux hours and UV exposure was 200 watt hours/square meter.
Photostability of lanreotide acetate, lanreotide bromide, lanreotide chloride, TBR-760 acetate, TBR-760 bromide and TBR760 chloride was tested according to the methods of Example 7. Four samples were prepared for each salt form: one control for each of the UV and visible light exposure conditions (controls isolated from light) and one sample for exposure to each of the UV and visible light conditions. For each sample, 2-5 mg of the salt was weighed into 3 mL clear serum vials and stoppered. Vials containing control samples were wrapped in aluminum foil.
Following exposure to visible and UV light, all lanreotide and TBR-760 salts were analyzed by UPLC as described in Example 7.

[5] = Photostability of TBR-760 salt forms (ICH Q1B, visible and UV light), appearance and UPLC purity; assay type: physicochemical
Description: as §3
Samples were placed in clear, sealed vials and stored in the appropriate chamber alongside dark controls in amber colored vials wrapped in aluminum foil. Control samples were stored in sealed amber vials at −20° C. The appearance of exposed samples was examined visually before being analyzed via UPLC.

[6] = Thermogravimetric analysis (TGA) of TBR-760 salt forms; assay type: physicochemical; settings: between 110° C. and 200° C.
Experimental: Thermogravimetric analyses (TGA) were performed on all TBR-760 salt forms to evaluate thermal stability of each salt form. Studies were performed using a TGA-Q500 thermogravimetric analyzer (TA Instruments). The weight of each compound was measured while the temperature was increased at a ramp rate of 5.0° C. per minute from 25 to 400° C. […] The weight loss may be indicative of loss of adsorbed moisture, entrained solvent or volatile impurities. Decomposition of the compound appears to start at about 234° C. (sulfate salt), 245° C. (chloride salt), 252° C. (tosylate salt), and 255° C. (mesylate salt). For the acetate salt, a further ˜5% loss of weight between 110° C. and 200° C. was observed, indicating loss of volatile acetate ions over that temperature range (FIG. 8).

[7] = 25° C. at 60% RH, open container
[8] = 40° C. at 75% RH, open container
[9] = UPLC peak purity, 25° C. at 60% RH, open container
[10] = UPLC peak purity, 40° C. at 75% RH, open container
[11] = UPLC peak purity, 60° C., open dish

For `CCCN1C[C@H](CSCC(=O)NCCCC[C@@H](NC(=O)CSC[C@@H]2C[C@@H]3c4cccc5[nH]cc(c45)C[C@H]3N(CCC)C2)C(=O)N[C@H]2CSSC[C@@H](C(=O)N[C@H](C(N)=O)[C@@H](C)O)NC(=O)[C@H](CC)NC(=O)[C@H](CCCCN)NC(=O)[C@@H](Cc3c[nH]c4ccccc34)NC(=O)[C@H](Cc3ccc(O)cc3)NC2=O)C[C@@H]2c3cccc4[nH]cc(c34)C[C@H]21` [TBR-760 Acetate*], the “Tmax (median in hr)” value (FIG. 6B) was 24 h.
With `CCCN1C[C@H](CSCC(=O)NCCCC[C@@H](NC(=O)CSC[C@@H]2C[C@@H]3c4cccc5[nH]cc(c45)C[C@H]3N(CCC)C2)C(=O)N[C@H]2CSSC[C@@H](C(=O)N[C@H](C(N)=O)[C@@H](C)O)NC(=O)[C@H](CC)NC(=O)[C@H](CCCCN)NC(=O)[C@@H](Cc3c[nH]c4ccccc34)NC(=O)[C@H](Cc3ccc(O)cc3)NC2=O)C[C@@H]2c3cccc4[nH]cc(c34)C[C@H]21` [TBR-760 Mesylate] the “Tmax (median in hr)” value (FIG. 6B) was 30 h.
In the case of `CCCN1C[C@H](CSCC(=O)NCCCC[C@@H](NC(=O)CSC[C@@H]2C[C@@H]3c4cccc5[nH]cc(c45)C[C@H]3N(CCC)C2)C(=O)N[C@H]2CSSC[C@@H](C(=O)N[C@H](C(N)=O)[C@@H](C)O)NC(=O)[C@H](CC)NC(=O)[C@H](CCCCN)NC(=O)[C@@H](Cc3c[nH]c4ccccc34)NC(=O)[C@H](Cc3ccc(O)cc3)NC2=O)C[C@@H]2c3cccc4[nH]cc(c34)C[C@H]21` [TBR-760 Tosylate], the “Tmax (median in hr)” value (FIG. 6B) is reported as 30 h.
For `CCCN1C[C@H](CSCC(=O)NCCCC[C@@H](NC(=O)CSC[C@@H]2C[C@@H]3c4cccc5[nH]cc(c45)C[C@H]3N(CCC)C2)C(=O)N[C@H]2CSSC[C@@H](C(=O)N[C@H](C(N)=O)[C@@H](C)O)NC(=O)[C@H](CC)NC(=O)[C@H](CCCCN)NC(=O)[C@@H](Cc3c[nH]c4ccccc34)NC(=O)[C@H](Cc3ccc(O)cc3)NC2=O)C[C@@H]2c3cccc4[nH]cc(c34)C[C@H]21` [TBR-760 acetate, Dop2-D-Lys(Dop2)-cyclo[Cys-Tyr-D-Trp-Lys-Abu-Cys]-Thr-NH2], the “change in visual appearance” value ([1]; 4 weeks at 60° C.) was “from a white powder to a yellow powder”, the salt form degraded ([1]; 60° C. for 4 weeks) was 9.9% and the salt form degraded ([1]; 60° C. for 8 weeks) was “more than 16%”. For the same compound, the compound degraded ([2]; 4 weeks at 60° C. and ambient humidity) was “greater than 5%”, the thermostability in words ([2]; increasing temperature and humidity (25° C./60% RH, 40° C./75% RH, 60° C.) up to 4 weeks) was “does not maintain stability” and the “Appearance, T = 2 wk” value [3, 7] was “White”. For the same compound, the “Appearance, T = 4 wk” value [3, 7] was “White”, the “Appearance, T = 3 d” value [3, 7] was “White” and the “stability compared with the other salt forms” value ([3]; 40° C. at 75% RH and 60° C., 2 and 4 weeks, listed as acetate salt) was “least stable of the salts tested”. The “Appearance, T = 2 wk” value [3, 8] was “White”, the “Appearance, T = 3 d” value [3, 8] was “White” and the “Appearance, T = 4 wk” value ([3]; 60° C., open dish) was “Pale Orange”. For the same compound, the “Appearance, T = 3 d” value ([3]; 60° C., open dish) was “White”, the “Purity, T = 2 wk” value [3, 9] was 98.16 and the “Purity, T = 4 wk” value [3, 9] was 98.09. For the same compound, the “Purity, T = 3 d” value [3, 9] was 98.52, the “Purity, T = 2 wk” value [3, 10] was 94.52 and the “Purity, T = 4 wk” value [3, 10] was 92.37. For the same compound, the “Purity, T = 3 d” value [3, 10] was 98.4, the “Purity, T = 2 wk” value [3, 11] was 89.7 and the “Purity, T = 4 wk” value [3, 11] was 82.32. For the same compound, the “Purity, T = 3 d” value [3, 11] was 96.66, the “Purity, Control” value ([3]; UPLC peak purity, control, stored at -20° C.) was 98.35 and the “Appearance, Control” value ([3]; control, stored at -20° C.) was “White”. The “additional degradants in chromatogram versus control” value ([3]; two weeks at 60° C., open dish, UPLC, listed as acetate salt) was 17, the “visible appearance after exposure to visible and UV light” value [4] was “from a white salt (control) to a yellow/brown salt” and the “Purity, UV-exposed” value ([5]; UPLC, UV 200 watt hours/square meter, clear sealed vial) was 96.16. The “Purity, Control” value ([5]; UPLC, control in sealed amber vial at -20° C.) was 98.35, the “Purity, Dark Ctrl-UV” value ([5]; UPLC, dark control in UV chamber) was 98.42 and the “Purity, Dark Crtl-Light” value ([5]; UPLC, dark control in visible light chamber) was 98.34. For the same compound, the “Purity, Light-exposed” value ([5]; UPLC, visible light 1.2 million lux hours, clear sealed vial) was 92.14, the “Appearance, UV-exposed” value ([5]; UV 200 watt hours/square meter, clear sealed vial, listed as TBR-760 acetate salt) was “white to a pale yellow-brown color” and the “Appearance, Control” value ([5]; control in sealed amber vial at -20° C.) was “white”. The “Appearance, Dark Ctrl-UV” value ([5]; dark control in UV chamber, amber vial wrapped in aluminum foil) was “white”, the “Appearance, Dark Crtl-Light” value ([5]; dark control in visible light chamber, amber vial wrapped in aluminum foil) was “white” and the “degradation under dark conditions” value ([5]; dark controls, UPLC) was “does not degrade”. For the same compound, the “degradation upon exposure to visible or UV light, in words” value ([5]; visible and UV light, UPLC) was “degraded”, the “Appearance, Light-exposed” value ([5]; visible light 1.2 million lux hours, clear sealed vial, listed as TBR-760 acetate salt) was “white to yellow-brown” and the “TGA further loss of weight” value [6] was “approximately 5%”.
